Assay results reported in patent US12528760B2 (DOMPÉ FARMACEUTICI S.P.A., priority 2019, dated 2026).
Values after ≈ are worked out from the molar mass of the structure shown.

Test: Solubility of Lysine in 2-Methyl-1-propanol
Format: physicochemical
Details: organic solvent or mixture

NCCCC[C@H](N)C(=O)O [Lysine]
solubility: ~26 mg/mL (≈ 178 mM)
